Reference: patent US20210255193A1, “LYSINE REACTIVE PROBES AND USES THEREOF” (The Scripps Research Institute, priority 2017, published 2021)

Columns and labels:
[1] = system: soluble proteome of the human breast cancer cell line MDA-MB-231; experiment: isoTOP-ABPP, residues labeled by probe 1; format: binding
Experimental: STP-alkyne labeling and click chemistry. For concentration-dependent reactivity measurements by isoTOP-ABPP, 0.5 ml proteome aliquots were treated at ambient temperature with 1 mM STP-alkyne 1 (5 μl of 100 mM stock in DMSO) and 0.1 mM STP alkyne 1 (5 μl of 10 mM stock in DMSO), respectively. For competitive isoTOP-ABPP, after in vitro fragment treatment (detailed above), the samples were labeled for 1 h at ambient temperature with 0.1 mM STP-alkyne 1 (5 μl of 10 mM stock in DMSO). Samples were conjugated by copper-mediated azide-alkyne cycloaddition (CuAAC) to either the light (1 mM STP-alkyne or fragment treated) or heavy (0.1 mM STP-alkyne or DMSO treated) TEV tags (10 μl of 5 mM stocks in DMSO, final concentration=100 μM) using tris(2-carboxyethyl)phosphine hydrochloride
Peptide and protein identification. The MS2 spectra were extracted from the raw file using RAW Xtractor. MS2 spectra were searched using the ProLuCID algorithm using a reverse concatenated, nonredundant variant of the Human UniProt database (release-2012_11). Cysteine residues were searched with a static modification for carboxyamidomethylation (+57.02146). For all competitive and reactivity profiling experiments, lysine residues were searched with up to one differential modification for either the light or heavy TEV tags (+464.2491 or +470.26331, respectively). Peptides were required to have at least one tryptic terminus and to contain the TEV modification. ProLuCID data was filtered through DTASelect (version 2.0) to achieve a peptide false-positive rate below 1%.
Differential labeling analysis of residues labeled by probe 1. For analysis of the residues labeled by probe 1, peptide and protein identification was conducted as detailed above with differential modification for either the light or heavy TEV tags (+464.2491 or +470.26331, respectively) allowed on lysine, arginine, aspartate, glutamate, histidine, serine, threonine, tyrosine, asparagine, glutamine and tryptophan. Cysteine was searched with a differential modification for either the light or heavy TEV tags (+413.24185 and +407.22764, respectively).
To assess the scope and selectivity with which 1 reacted with lysine residues in human cell proteomes, initial isoTOP-ABPP experiments were performed as follows. Two equal amounts of the soluble proteome of the human breast cancer cell line MDA-MB-231 (0.75 mg of protein per sample) were treated with 1 (100 μM, 1 h), and then conjugated by copper-catalyzed azide-alkyne cycloaddition (CuAAC) to isotopically differentiated TEV-cleavable, azide-biotin tags (heavy and light, respectively). The heavy and light-tagged samples were then combined, and 1-labeled proteins enriched by streptavidin and proteolytically digested sequentially with trypsin and TEV protease (to release 1-labeled tryptic peptides from the streptavidin support), furnishing isotopic (heavy/light) peptide pairs that were analyzed by multidimensional liquid chromatography-MS(LC/LC-MS/MS). Measurement of the MS1 chromatographic peak ratios for light/heavy peptide pairs provided an isoTOP-ABPP ratio or R value, which centered on about 1.0 for the more than 5000 probe 1-labeled peptides quantified in this initial study. […] Because lysine modification creates a missed trypsin cleavage site, the fractions of alternative amino-acid modification assignments were further assessed for their occurrence on peptides harboring a missed lysine cleavage site. […]

PNPO [2] = target: T1, PNPO (Homo sapiens, UniProt Q9NVS9); experiment: PNPO functional assay; format: biochemical; conditions: substrate assay, WT; read-out: IC50, blockade of PNPO catalytic activity
T1 construct: Flag; expressed in transfected cells; host or cells: HEK 293T, transient transfection, soluble lysate
T1 sequence (Q9NVS9 1-261): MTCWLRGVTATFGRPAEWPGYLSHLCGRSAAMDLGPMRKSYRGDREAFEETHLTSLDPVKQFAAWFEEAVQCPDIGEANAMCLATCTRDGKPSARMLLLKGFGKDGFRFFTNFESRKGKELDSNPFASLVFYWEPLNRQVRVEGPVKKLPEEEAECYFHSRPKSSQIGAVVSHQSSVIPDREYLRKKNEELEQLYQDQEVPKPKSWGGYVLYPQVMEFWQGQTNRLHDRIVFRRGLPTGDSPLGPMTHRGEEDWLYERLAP
Experimental: (§1) PNPO functional assay. 80 μl of soluble proteome (total protein concentration: 1 mg ml^−1) from HEK 293T cells expressing PNPO (WT or K100R mutant) or mock transfected cells (empty vector; negative control) were added into a clear bottom 384 well plate. For compound treatments, 1 μl of the inhibitor (80× solution in DMSO) or 1 μl of DMSO (positive control) were added and the reactions were incubated for 1 h at room temperature. 10 μl of 0.1 M Tris in PBS were added and the reaction was started by addition of 10 μl 5 mM pyridoxine phosphate (PNP) in water (PNP was prepared as described in Argoudelis, C. J., “Preparation of crystalline pyridoxine 5′-phosphate and some of its properties,” J. Agr. Food Chem. 34, 995-998 (1986)). The absorbance of the Schiff Base between pyridoxal phosphate and Tris was measured at 388 nm every minute for 30 min.
(§2) Calculation of relative activity or percent inhibition. For PNPO, PFKP, NUDT2 and G6PD, the slope of the linear regression of the linear portion of the absorbance or fluorescence over time was used as measure their activity. Apparent activity was calculated relative to the WT. Percent inhibition was calculated relative to the positive and negative control and used to calculate IC50 values by nonlinear regression analysis from a dose-response curve generated using GraphPad Prism 7.

PNPO [3] = target: T2, PNPO (Homo sapiens, UniProt Q9NVS9, K100R); experiment: PNPO functional assay; format: biochemical; conditions: K100R mutant
T2 construct: Flag; expressed in transfected cells; host or cells: HEK 293T, transient transfection, soluble lysate
T2 sequence (Q9NVS9 whole entry K100R): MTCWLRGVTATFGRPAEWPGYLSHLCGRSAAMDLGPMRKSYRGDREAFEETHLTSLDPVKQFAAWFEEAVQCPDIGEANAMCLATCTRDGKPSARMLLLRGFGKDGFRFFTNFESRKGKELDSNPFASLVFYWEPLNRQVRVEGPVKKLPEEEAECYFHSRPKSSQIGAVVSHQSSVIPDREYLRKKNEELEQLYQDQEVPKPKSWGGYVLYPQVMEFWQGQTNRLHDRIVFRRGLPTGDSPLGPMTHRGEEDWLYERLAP
Experimental: as §1, §2

[4] = 1 100 μM, 1 h, pilot experiment

| IC50 (PNPO [2]) | inhibitory effect on K100R mutant of PNPO (PNPO [3]) | SMILES | reactivity and selectivity for lysine residues in the human proteome ([1]; 1 100 μM) | probe 1-labeled peptides quantified ([1]; 1 100 μM, 1 h) | 1-labeled peptides assigned as uniquely modified on lysine residues [1, 4] | remaining 1-labeled peptides assigned with lysine modifications as well as alternative residue modifications [1, 4] | probe 1 modifications assigned to serine, of the total 1-labeled peptides ([1]; after filtering missed lysine cleavage events) |
| --- | --- | --- | --- | --- | --- | --- | --- |
| – | – | C#CCCC(=O)Oc1c(F)c(F)c(S(=O)(=O)[O-])c(F)c1F.[Na+] [probe 1, reference compound] | broad reactivity and good selectivity for lysine residues | more than 5000 | > 52% | 54% | about 8% |
| ~5 µM | not observed | O=C(CCc1cn(-c2ccccc2)nc1-c1ccccc1)Oc1c(F)c(F)c(F)c(F)c1F [fragment 19, Pentafluorophenyl 3-(1,3-diphenyl-1H-pyrazol-4-yl)propanoate] | – | – | – | – | – |
